# Experimental data published in ChEMBL document CHEMBL4049463, “Repurposing Suzuki Coupling Reagents as a Directed Fragment Library Targeting Serine Hydrolases and Related Enzymes” (J Med Chem, 2017).
# pIC50: −log10 of the molar value.
# Target: Autotaxin (Mus musculus) (UniProt Q9R1E6)
row,pIC50,Compound
1,3.10,O=C(O)c1ccc2cc[nH]c2c1
2,5.30,COc1ccc(B(O)O)cc1
3,5.00,OB(O)c1cccc(O)c1
4,3.30,Oc1ccc(-n2ccnc2)cc1
5,5.00,OB(O)c1ccc(O)cc1
6,5.40,COc1ccccc1B(O)O
7,4.90,OCc1cccc(B(O)O)c1
8,3.70,Oc1ccc2nonc2c1
9,2.90,NCc1cccc(O)c1
10,5.70,OB(O)c1ccc2cc[nH]c2c1
11,3.60,Nc1cccc(-c2nnc[nH]2)c1
12,6.00,OB(O)c1ccccc1OCc1cccc(Cl)c1
13,5.00,OB(O)c1ccc2nonc2c1
14,5.30,CS(=O)(=O)c1ccc(B(O)O)cc1
15,6.50,COc1cc(COc2ccc(B(O)O)cc2Cl)cc(OC)c1
16,5.30,N#CCc1cccc(B(O)O)c1
17,6.30,COCCc1ccc(OCc2cccc(B(O)O)c2)cc1
18,5.80,N#C/C=C/c1cccc(B(O)O)c1
19,4.70,N#Cc1cccc(B(O)O)c1
20,4.70,COc1cccc(B(O)O)c1
21,5.30,N#Cc1ccc(B(O)O)cc1
22,3.20,CS(=O)(=O)c1ccc(O)cc1
23,5.00,OB(O)c1ccccc1 [PHENYLBORONIC ACID]

row,Compound,pIC50
1,OB(O)c1ccc(Cl)cc1,5.50

# Target: Autotaxin (Mus musculus, UniProt Q9R1E6)
# Assay: Inhibition of mouse ATX using TG-mTMP as substrate after 2 hrs by fluorometric analysis
row,pIC50,Compound
1,7.90,OB(O)c1cccc(CCN2CCN(c3nc(O)c(Cc4ccc(Cl)c(Cl)c4)s3)CC2)c1
2,7.70,OB(O)c1ccc(CCCN2CCC(c3nc(O)c(Cc4ccc(Cl)c(Cl)c4)s3)CC2)cc1
3,6.20,OB(O)c1ccccc1CCN1CCN(c2nc(O)c(Cc3ccc(Cl)c(Cl)c3)s2)CC1
